In paper PMC10165273, “Itch receptor MRGPRX4 interacts with the receptor activity–modifying proteins” (The Journal of Biological Chemistry, 2023):
pEC50: −log10 of the molar value. Like-named read-outs stand apart in the source and are kept apart here.

Target: T1, MRGPRX4 (Homo sapiens, UniProt Q96LA9)
T1 construct: expressed in transfected cells; host or cells: HEK293T
Assay: IP1 accumulation HTRF assay, MRGPRX4
Format: cell-based
Set-up: key to IP1 Basal / IP1 accumulation with YM (Figure 1c) / response to agonist, MRGPRX4 / IP1 accumulation: % IP1: unstimulated mock-transfected = 0%, fully stimulated MRGPRX4 = 100%
Details: for pEC50: read-out: IP1 EC50; for EC50: read-out: IP1 logEC50 (converted); for IP1 accumulation (normalized): Supplementary Figure 5d-g

[1] = Tet-On MRGPRX4 2pg/cell, Dox 13 ng/mL (Fig. S5A)
[2] = Tet-On MRGPRX4 2pg/cell, Dox 40 ng/mL (Fig. S5A)
[3] = Tet-On MRGPRX4 2pg/cell, Dox 1100 ng/mL (Fig. S5A)
[4] = Tet-On MRGPRX4 2pg/cell, Dox 3300 ng/mL (Fig. S5A)
[5] = Tet-On MRGPRX4, over 1pg/cell Normalized, Dox 13 ng/mL (Fig. S5C)
[6] = Tet-On MRGPRX4, over 1pg/cell Normalized, Dox 40 ng/mL (Fig. S5C)
[7] = Tet-On MRGPRX4, over 1pg/cell Normalized, Dox 1100 ng/mL (Fig. S5C)
[8] = Tet-On MRGPRX4, over 1pg/cell Normalized, Dox 3300 ng/mL (Fig. S5C)
[9] = Tet-On MRGPRX4:RAMP Ratio 1:0 (Fig. S5D-F)
[10] = construct FLAG-MRGPRX4-1D4 (Fig. S4A-F)
[11] = construct FLAG-MRGPRX4-GFP10-1D4 (Fig. S4A-F)
[12] = construct FLAG-NLuc-HT7-MRGPRX4-GFP10-1D4 (Fig. S4A-F)
[13] = construct HA-MRGPRX4-1D4 (Fig. S4A-F)

T1 sequence (Q96LA9 whole entry): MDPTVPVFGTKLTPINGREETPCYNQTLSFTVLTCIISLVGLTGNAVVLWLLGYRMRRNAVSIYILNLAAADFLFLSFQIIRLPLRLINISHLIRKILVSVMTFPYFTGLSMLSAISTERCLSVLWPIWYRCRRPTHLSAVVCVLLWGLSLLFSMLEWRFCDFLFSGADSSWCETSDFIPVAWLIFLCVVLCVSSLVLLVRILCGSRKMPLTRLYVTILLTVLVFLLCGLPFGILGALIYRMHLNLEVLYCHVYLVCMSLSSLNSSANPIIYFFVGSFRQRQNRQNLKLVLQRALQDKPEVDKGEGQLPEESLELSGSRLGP

For CC(C)[C@H]1CC[C@H](C(=O)N[C@H](Cc2ccccc2)C(=O)O)CC1 [Nateglinide], the pEC50 (Tet-On MRGPRX4 1pg/cell, Dox 3300 ng/mL (Fig. S5B)) was 5.03, the Emax (Tet-On MRGPRX4 1pg/cell, Dox 3300 ng/mL (Fig. S5B), read-out: IP1 Emax) was 34.4% and the Emax (Tet-On MRGPRX4 1pg/cell, Dox 3300 ng/mL (Fig. S5B), read-out: IP1 span) was 35.4%. For the same molecule, the “IP1 Basal” value (Tet-On MRGPRX4 1pg/cell, No dox (Fig. S5B)) was -1.503, the Emax (Tet-On MRGPRX4 1pg/cell, No dox (Fig. S5B), read-out: IP1 Emax) was 25% and the Emax (Tet-On MRGPRX4 1pg/cell, No dox (Fig. S5B), read-out: IP1 span) was 26.5%. For the same molecule, the “IP1 Basal” value [1] was 6.149, the pEC50 [1] was 5.13 and the Emax (Tet-On MRGPRX4 2pg/cell, Dox 13 ng/mL (Fig. S5A), read-out: IP1 Emax) was 84.9%. For the same molecule, the EC50 [1] was 7.35 µM, the Emax (Tet-On MRGPRX4 2pg/cell, Dox 13 ng/mL (Fig. S5A), read-out: IP1 span) was 78.8% and the “IP1 Basal” value [2] was 7.421. The pEC50 [2] was 5.22, the Emax (Tet-On MRGPRX4 2pg/cell, Dox 40 ng/mL (Fig. S5A), read-out: IP1 Emax) was 87.5% and the Emax (Tet-On MRGPRX4 2pg/cell, Dox 40 ng/mL (Fig. S5A), read-out: IP1 span) was 80.1%. The “IP1 Basal” value [3] was 11.03, the Emax (Tet-On MRGPRX4 2pg/cell, Dox 1100 ng/mL (Fig. S5A), read-out: IP1 Emax) was 101% and the EC50 [3] was 5.41 µM. For the same molecule, the Emax (Tet-On MRGPRX4 2pg/cell, Dox 1100 ng/mL (Fig. S5A), read-out: IP1 span) was 90.4%, the “IP1 Basal” value [4] was 10.81 and the pEC50 [4] was 5.20. For the same molecule, the Emax (Tet-On MRGPRX4 2pg/cell, Dox 3300 ng/mL (Fig. S5A), read-out: IP1 Emax) was 106%, the Emax (Tet-On MRGPRX4 2pg/cell, Dox 3300 ng/mL (Fig. S5A), read-out: IP1 span) was 95.6% and the “IP1 logEC50” value (Tet-On MRGPRX4 2pg/cell, Dox […] (Fig. S5A)) was -5.040. For the same molecule, the “IP1 Basal” value (Tet-On MRGPRX4 2pg/cell, No dox (Fig. S5A)) was 0.7169, the Emax (Tet-On MRGPRX4 2pg/cell, No dox (Fig. S5A), read-out: IP1 Emax) was 72.3% and the Emax (Tet-On MRGPRX4 2pg/cell, No dox (Fig. S5A), read-out: IP1 span) was 71.5%. For the same molecule, the “IP1 Basal” value [5] was -3.443, the pEC50 [5] was 4.72 and the Emax (Tet-On MRGPRX4, over 1pg/cell Normalized, Dox 13 ng/mL (Fig. S5C), read-out: IP1 Emax) was 59.2%. The Emax (Tet-On MRGPRX4, over 1pg/cell Normalized, Dox 13 ng/mL (Fig. S5C), read-out: IP1 span) was 62.7%, the “IP1 Basal” value [6] was -3.289 and the pEC50 [6] was 4.87. For the same molecule, the Emax (Tet-On MRGPRX4, over 1pg/cell Normalized, Dox 40 ng/mL (Fig. S5C), read-out: IP1 Emax) was 63.5%, the Emax (Tet-On MRGPRX4, over 1pg/cell Normalized, Dox 40 ng/mL (Fig. S5C), read-out: IP1 span) was 66.8% and the “IP1 Basal” value [7] was -2.284. The pEC50 [7] was 4.97, the Emax (Tet-On MRGPRX4, over 1pg/cell Normalized, Dox 1100 ng/mL (Fig. S5C), read-out: IP1 Emax) was 100% and the Emax (Tet-On MRGPRX4, over 1pg/cell Normalized, Dox 1100 ng/mL (Fig. S5C), read-out: IP1 span) was 102%. The “IP1 Basal” value [8] was 3.818, the “IP1 logEC50” value [8] was -5.036 and the pEC50 [8] was 5.04. For the same molecule, the Emax (Tet-On MRGPRX4, over 1pg/cell Normalized, Dox 3300 ng/mL (Fig. S5C), read-out: IP1 Emax) was 111%, the Emax (Tet-On MRGPRX4, over 1pg/cell Normalized, Dox 3300 ng/mL (Fig. S5C), read-out: IP1 span) was 107% and the “IP1 Basal” value (Tet-On MRGPRX4, over 1pg/cell Normalized, No dox (Fig. S5C)) was -1.726. The Emax (Tet-On MRGPRX4, over 1pg/cell Normalized, No dox (Fig. S5C), read-out: IP1 Emax) was 55.6%, the Emax (Tet-On MRGPRX4, over 1pg/cell Normalized, No dox (Fig. S5C), read-out: IP1 span) was 57.3% and the “IP1 Basal” value [9] was 8.926. For the same molecule, the pEC50 [9] was 5.39, the Emax (Tet-On MRGPRX4:RAMP Ratio 1:0 (Fig. S5D-F), read-out: IP1 Emax) was 107% and the Emax (Tet-On MRGPRX4:RAMP Ratio 1:0 (Fig. S5D-F), read-out: IP1 span) was 97.7%. For the same molecule, the “IP1 Basal” value (Tet-On MRGPRX4:RAMP Ratio 1:0, no dox (Fig. S5D-F)) was 0.2822, the Emax (Tet-On MRGPRX4:RAMP Ratio 1:0, no dox (Fig. S5D-F), read-out: IP1 Emax) was 2.46% and the Emax (Tet-On MRGPRX4:RAMP Ratio 1:0, no dox (Fig. S5D-F), read-out: IP1 span) was 2.17%. The “IP1 Basal” value [10] was 6.903, the pEC50 [10] was 4.99 and the Emax (construct FLAG-MRGPRX4-1D4 (Fig. S4A-F), read-out: IP1 Emax) was 102%. The Emax (construct FLAG-MRGPRX4-1D4 (Fig. S4A-F), read-out: IP1 span) was 95.1%, the “IP1 Basal” value [11] was 7.722 and the pEC50 [11] was 5.00. The Emax (construct FLAG-MRGPRX4-GFP10-1D4 (Fig. S4A-F), read-out: IP1 Emax) was 110%, the Emax (construct FLAG-MRGPRX4-GFP10-1D4 (Fig. S4A-F), read-out: IP1 span) was 102% and the “IP1 Basal” value [12] was 8.575. The pEC50 [12] was 5.19, the Emax (construct FLAG-NLuc-HT7-MRGPRX4-GFP10-1D4 (Fig. S4A-F), read-out: IP1 Emax) was 55.2% and the Emax (construct FLAG-NLuc-HT7-MRGPRX4-GFP10-1D4 (Fig. S4A-F), read-out: IP1 span) was 46.6%. The “IP1 Basal” value [13] was 13.13, the pEC50 [13] was 4.97 and the Emax (construct HA-MRGPRX4-1D4 (Fig. S4A-F), read-out: IP1 Emax) was 91.5%. The Emax (construct HA-MRGPRX4-1D4 (Fig. S4A-F), read-out: IP1 span) was 78.4%, the “IP1 accumulation (normalized)” value (log [nateglinide] (M) -4, MRGPRX4 no dox) was 1.452 and the “IP1 accumulation (normalized)” value (log [nateglinide] (M) -4.69897, MRGPRX4) was 92.3953. For the same molecule, the “IP1 accumulation (normalized)” value (log [nateglinide] (M) -5.39794, MRGPRX4) was 57.3306, the “IP1 accumulation (normalized)” value (log [nateglinide] (M) -6.09691, MRGPRX4) was 20.5565 and the “IP1 accumulation (normalized)” value (log [nateglinide] (M) -6.79588, MRGPRX4) was 15.0154. The “IP1 accumulation (normalized)” value (log [nateglinide] (M) -7.49485, MRGPRX4) was 11.7498.
